System: 857933-349-R-J2-PDC complex spheroids, viability
Experiment: Anticancer human tumor 857933-349-R-J2-PDC patient-derived colon adenocarcinoma cell line growth inhibition [GQUAD]
Conditions: for IC50: curve of first compound; for viability, T/C: stronger effect = lower value
In short: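 Multi-cell-type spheroids of tumor cells with HUVEC and mesenchymal stem cells, treated with drug combinations. Concentrations descend in half-log steps from near clinical Cmax, or from 10 microM where Cmax is unknown; viability read-out.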

[1] = second compound 0.0316 µM, first compound 0.0316 µM
[2] = second compound 0.0316 µM, first compound 0.1 µM
[3] = second compound 0.0316 µM, first compound 0.316 µM
[4] = second compound 0.0316 µM, first compound 1 µM
[5] = second compound 0.0316 µM, first compound 3.16 µM
[6] = second compound 0.0316 µM, first compound 10 µM
[7] = second compound 0.1 µM, first compound 0.0316 µM
[8] = second compound 0.1 µM, first compound 0.1 µM
[9] = second compound 0.1 µM, first compound 0.316 µM
[10] = second compound 0.1 µM, first compound 1 µM
[11] = second compound 0.1 µM, first compound 3.16 µM
[12] = second compound 0.1 µM, first compound 10 µM
[13] = second compound 0.316 µM, first compound 0.0316 µM
[14] = second compound 0.316 µM, first compound 0.1 µM
[15] = second compound 0.316 µM, first compound 0.316 µM
[16] = second compound 0.316 µM, first compound 1 µM
[17] = second compound 0.316 µM, first compound 3.16 µM
[18] = second compound 0.316 µM, first compound 10 µM
[19] = second compound 1 µM, first compound 0.0316 µM
[20] = second compound 1 µM, first compound 0.1 µM
[21] = second compound 1 µM, first compound 0.316 µM
[22] = second compound 1 µM, first compound 1 µM
[23] = second compound 1 µM, first compound 3.16 µM
[24] = second compound 1 µM, first compound 10 µM
[25] = second compound 3.16 µM, first compound 0.0316 µM
[26] = second compound 3.16 µM, first compound 0.1 µM
[27] = second compound 3.16 µM, first compound 0.316 µM
[28] = second compound 3.16 µM, first compound 1 µM
[29] = second compound 3.16 µM, first compound 3.16 µM
[30] = second compound 3.16 µM, first compound 10 µM
[31] = second compound 10 µM, first compound 0.0316 µM
[32] = second compound 10 µM, first compound 0.1 µM
[33] = second compound 10 µM, first compound 0.316 µM
[34] = second compound 10 µM, first compound 1 µM
[35] = second compound 10 µM, first compound 3.16 µM
[36] = second compound 10 µM, first compound 10 µM
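Note: spheroids exposed to compounds for one week before readout.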
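Throughout, for viability, T/C: percent viability relative to vehicle DMSO wells taken as 100%.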

## O=c1[nH]cc(F)c(=O)[nH]1 + Cc1[nH]c2ccc(F)cc2c1-c1nc2c3cccnc3c3ncccc3c2[nH]1
Second compound 0.0316 µM
  IC50: 1720 nM
Second compound 0.1 µM
  IC50: 1800 nM
Second compound 0.316 µM
  IC50: 2100 nM
Second compound 1 µM
  IC50: 2150 nM
Second compound 3.16 µM
  IC50: 2060 nM
Second compound 10 µM
  IC50: 2200 nM
[1]
  viability, T/C: 97.1%
[2]
  viability, T/C: 111%
[3]
  viability, T/C: 99%
[4]
  viability, T/C: 65.7%
[5]
  viability, T/C: 33.3%
[6]
  viability, T/C: 22.6%
[7]
  viability, T/C: 104%
[8]
  viability, T/C: 103%
[9]
  viability, T/C: 96.8%
[10]
  viability, T/C: 64.8%
[11]
  viability, T/C: 36%
[12]
  viability, T/C: 22.5%
[13]
  viability, T/C: 100%
[14]
  viability, T/C: 99.3%
[15]
  viability, T/C: 94%
[16]
  viability, T/C: 74.9%
[17]
  viability, T/C: 36.1%
[18]
  viability, T/C: 22.6%
[19]
  viability, T/C: 101%
[20]
  viability, T/C: 98.2%
[21]
  viability, T/C: 96.7%
[22]
  viability, T/C: 75.7%
[23]
  viability, T/C: 37%
[24]
  viability, T/C: 23%
[25]
  viability, T/C: 96.3%
[26]
  viability, T/C: 94.7%
[27]
  viability, T/C: 96.7%
[28]
  viability, T/C: 73.8%
[29]
  viability, T/C: 36.1%
[30]
  viability, T/C: 22.6%
[31]
  viability, T/C: 93.2%
[32]
  viability, T/C: 96.8%
[33]
  viability, T/C: 95.2%
[34]
  viability, T/C: 82%
[35]
  viability, T/C: 35.3%
[36]
  viability, T/C: 24.8%

## Cc1[nH]c2ccccc2c1CCNCc1ccc(/C=C/C(=O)NO)cc1 + Cc1cnc(CNC(=O)c2c(=O)c3ccc(N4CCCN(C)CC4)nc3n3c2sc2ccccc23)cn1
Second compound 0.0316 µM
  IC50: 267 nM
Second compound 0.1 µM
  IC50: 155 nM
Second compound 0.316 µM
  IC50: < 0.999 nM
Second compound 1 µM
  IC50: < 0.999 nM
Second compound 3.16 µM
  IC50: < 0.999 nM
Second compound 10 µM
  IC50: < 0.999 nM
Second compound 0.0316 µM, first compound 0.000999 µM
  viability, T/C: 91%
Second compound 0.0316 µM, first compound 0.00316 µM
  viability, T/C: 93.7%
Second compound 0.0316 µM, first compound 0.00999 µM
  viability, T/C: 106%
[1]
  viability, T/C: 86.5%
Second compound 0.0316 µM, first compound 0.0999 µM
  viability, T/C: 93.8%
[3]
  viability, T/C: 42.5%
Second compound 0.1 µM, first compound 0.000999 µM
  viability, T/C: 51.7%
Second compound 0.1 µM, first compound 0.00316 µM
  viability, T/C: 65.6%
Second compound 0.1 µM, first compound 0.00999 µM
  viability, T/C: 65.6%
[7]
  viability, T/C: 77%
Second compound 0.1 µM, first compound 0.0999 µM
  viability, T/C: 75.5%
[9]
  viability, T/C: 22.2%
Second compound 0.316 µM, first compound 0.000999 µM
  viability, T/C: 20.1%
Second compound 0.316 µM, first compound 0.00316 µM
  viability, T/C: 27.2%
Second compound 0.316 µM, first compound 0.00999 µM
  viability, T/C: 28.9%
[13]
  viability, T/C: 47.6%
Second compound 0.316 µM, first compound 0.0999 µM
  viability, T/C: 37.1%
[15]
  viability, T/C: 3.64%
Second compound 1 µM, first compound 0.000999 µM
  viability, T/C: 4.8%
Second compound 1 µM, first compound 0.00316 µM
  viability, T/C: 4.9%
Second compound 1 µM, first compound 0.00999 µM
  viability, T/C: 6.18%
[19]
  viability, T/C: 9.89%
Second compound 1 µM, first compound 0.0999 µM
  viability, T/C: 5.17%
[21]
  viability, T/C: 0.17%
Second compound 3.16 µM, first compound 0.000999 µM
  viability, T/C: 2.36%
Second compound 3.16 µM, first compound 0.00316 µM
  viability, T/C: 3.21%
Second compound 3.16 µM, first compound 0.00999 µM
  viability, T/C: 2.34%
[25]
  viability, T/C: 1.12%
Second compound 3.16 µM, first compound 0.0999 µM
  viability, T/C: 0.55%
[27]
  viability, T/C: 0.15%
Second compound 10 µM, first compound 0.000999 µM
  viability, T/C: 0.3%
Second compound 10 µM, first compound 0.00316 µM
  viability, T/C: 0.24%
Second compound 10 µM, first compound 0.00999 µM
  viability, T/C: 0.43%
[31]
  viability, T/C: 0.42%
Second compound 10 µM, first compound 0.0999 µM
  viability, T/C: 0.37%
[33]
  viability, T/C: 0.26%

## COc1cc(C2c3cc4c(cc3C(OC3OC5COC(C)OC5C(O)C3O)C3COC(=O)C23)OCO4)cc(OC)c1O (stereo unspecified) + Cc1cnc(CNC(=O)c2c(=O)c3ccc(N4CCCN(C)CC4)nc3n3c2sc2ccccc23)cn1
Second compound 0.0316 µM
  IC50: 331 nM
Second compound 0.1 µM
  IC50: 104 nM
Second compound 0.316 µM
  IC50: < 31.6 nM
Second compound 1 µM
  IC50: < 31.6 nM
Second compound 3.16 µM
  IC50: < 31.6 nM
Second compound 10 µM
  IC50: < 31.6 nM
[1]
  viability, T/C: 66.6%
[2]
  viability, T/C: 52.2%
[3]
  viability, T/C: 43.6%
[4]
  viability, T/C: 47%
[5]
  viability, T/C: 43.6%
[6]
  viability, T/C: 22.9%
[7]
  viability, T/C: 54.1%
[8]
  viability, T/C: 49.4%
[9]
  viability, T/C: 44.5%
[10]
  viability, T/C: 38.2%
[11]
  viability, T/C: 36.2%
[12]
  viability, T/C: 18.4%
[13]
  viability, T/C: 27.8%
[14]
  viability, T/C: 31.1%
[15]
  viability, T/C: 24.8%
[16]
  viability, T/C: 22.8%
[17]
  viability, T/C: 13.7%
[18]
  viability, T/C: 6.56%
[19]
  viability, T/C: 5.71%
[20]
  viability, T/C: 6.22%
[21]
  viability, T/C: 5.39%
[22]
  viability, T/C: 5.9%
[23]
  viability, T/C: 4.83%
[24]
  viability, T/C: 3.18%
[25]
  viability, T/C: 3.86%
[26]
  viability, T/C: 2.65%
[27]
  viability, T/C: 2.29%
[28]
  viability, T/C: 2.54%
[29]
  viability, T/C: 2.32%
[30]
  viability, T/C: 1.47%
[31]
  viability, T/C: 1.65%
[32]
  viability, T/C: 1.68%
[33]
  viability, T/C: 1.55%
[34]
  viability, T/C: 2.21%
[35]
  viability, T/C: 0.74%
[36]
  viability, T/C: 0.21%

Source: PubChem BioAssay AID2060491 (Molecular Pharmacology Branch, DTP, NCI, 2025)
